Test results: US20220024921A1, “1,3,4-OXADIAZOLONE COMPOUND AND PHARMACEUTICAL” (NIPPON SHINYAKU CO., LTD., priority 2018, published 2022)
Counter-ions that a name gives are not always drawn.

Experiments:
[1] = target: PIM1 transgenic cells (Ba/F3) (Homo sapiens, UniProt P11309); assay: Proliferation inhibitory effect on PIM1 transgenic cells; type: cell-based, mouse; conditions: proliferation inhibition, 72 hours, Cell Counting Kit-8, read-out: PIM1 IC50
Description: Human PIM1, 2, and 3 genes were inserted into the multi-cloning sites of retrovirus expression vectors pMYs-IRES-GFP, respectively, to prepare gene transfer vectors. Then, each gene transfer vector was introduced into packaging cells PLAT-E derived from a human fetal kidney cell line in the logarithmic growth phase, using a transfection reagent (FuGENE6, Promega Corporation). Since the culture supernatant of PLAT-E after gene transfer contained virus particles for gene transfer, the culture supernatant was collected and used as a medium for gene transfer. The medium for gene transfer was added to a plate coated with RetroNectin, and the plate was incubated to attach the virus particles to the plate. Then, a mouse pro-B cell line Ba/F3 in the logarithmic growth phase was seeded on the plate and infected with the virus to prepare PIM1, 2, or 3 transgenic cells that proliferate in a PIM 1, 2, or 3-dependent manner. The expression of PIM1, 2, or 3 protein in each cell was confirmed by Western blotting.
Each test substance was prepared to 10 mM with dimethylsulfoxide (DMSO), and diluted with DMSO so as to have concentrations of 3000, 1000, 300, 100, 30, 10, 3, and 1 μM. Moreover, each dilution was further diluted 10-fold with distilled water to prepare a test substance solution.
PIM1, 2, 3-expressing cells were seeded on a 96-well plate, and each test substance solution prepared the next day was added such that final concentrations were 10000, 3000, 1000, 300, 100, 30, 10, 3, and 1 nM. 72 hours after the addition, 10 μL of Cell Counting Kit-8 (DOJINDO LABORATORIES) was added to each well. After incubation for 1 to 4 hours, absorbance OD450 at 450 nm was measured. In addition, absorption OD650 at 650 nm as a reference wavelength was measured.
OD450-OD650 for each condition was calculated, and then the inhibition rates when OD450-OD650 of negative control (DMSO only) and OD450-OD650 of Blank (without cells) were set to 0% and 100%, respectively, were calculated. Then, non-linear regression analysis was performed for logarithmic dose and inhibition rate using a two-parameter logistic model to estimate IC50 values.

[2] = target: T1, PIM1 serine/threonine kinase (Homo sapiens, UniProt P11309); assay: PIM1 serine/threonine kinase inhibitory effect; type: biochemical; conditions: PIM1 serine/threonine kinase activity; ATP 40 μM; 30° C., 30 minutes
T1 construct: purchased Carna Bioscience, Inc
Protocol: Each test substance was prepared to 10 mM with dimethylsulfoxide (DMSO), and further diluted with DMSO so as to have concentrations of 1000, 300, 100, 30, 10, 3, 1, 0.3, 0.1, 0.03, 0.01, and 0.001 μM. Moreover, each dilution was further diluted 33.3-fold with an assay buffer to prepare a test substance solution. The composition of the assay buffer was 50 mM HEPES (pH 7.0), 0.02% NaN3, 0.01% Bovine Serum Albumin, 0.1 mM Orthovanadate, 1 mM Dithiothreitol, and 5 mM MgCl2.
5 μL of each test substance solution was added to 384-well plates (n=2), and then 2.5 μL of a substrate solution (substrate 3-biotin (Cisbio Bioassays SAS), final concentration in the reaction solution: 0.5 μM) and 2.5 μL of an ATP solution (in the cases of PIM1, 2, 3, the final concentrations in the reaction solutions were 40, 2, and 10 μM, respectively) were added, 5 μL of each of PIM1, 2, 3 serine/threonine kinase solutions (Carna Bioscience, Inc., the final concentrations in the reaction solutions were 0.15, 1.6, and 0.25 μg/ml, respectively) was finally added, and the mixture was reacted at 30° C. for 30 minutes. The test substance concentrations in the reaction solutions are 10000, 3000, 1000, 300, 100, 30, 10, 3, 1, 0.3, 0.1, and 0.01 nM.
Thereafter, 15 μL of each detection solution (62.5 nM Streptavidin-XL665 (Cisbio Bioassays SAS), […] STK antibody-Cryptate (Cisbio Bioassays SAS), 50 mM HEPES (pH 7.0), 0.8 M KF, 0.1% Bovine Serum Albumin, 20 mM ethylenediaminetetraacetic acid) was added to each well. After stirring, the mixture was reacted at 30° C. for 1 hour. Absorbance (OD620, OD665) at 620 and 665 nm was measured with a microplate reader (SpectraMax M5e, Molecular Devices, LLC).
Non-linear regression analysis was performed by an SAS system (SAS Institute Inc.) using the ratio (OD665/OD620) of the measured absorbance to calculate a test substance concentration (IC50) that inhibits PIM1 serine/threonine kinase activity by 50%.

T1 sequence (P11309 whole entry): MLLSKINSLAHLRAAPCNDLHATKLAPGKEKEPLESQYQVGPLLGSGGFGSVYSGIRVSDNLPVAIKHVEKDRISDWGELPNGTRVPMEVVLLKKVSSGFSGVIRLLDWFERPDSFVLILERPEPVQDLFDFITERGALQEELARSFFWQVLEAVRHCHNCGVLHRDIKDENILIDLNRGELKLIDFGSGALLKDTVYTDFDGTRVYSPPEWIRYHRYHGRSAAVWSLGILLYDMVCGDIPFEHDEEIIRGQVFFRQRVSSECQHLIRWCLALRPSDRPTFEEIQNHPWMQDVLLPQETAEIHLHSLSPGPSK
Sequence of PIM1 transgenic cells (Ba/F3) (P11309 whole entry, stated change not applied): as the sequence (P11309 whole entry) above

Compound | GI50 [1] [nM] | IC50 [2] [nM]
N[C@H]1CC[C@H](Nc2cc(-c3n[nH]c(=O)o3)ccc2Br)CC1 [Example 35, 5-(3-{[(1r,4r)-4-aminocyclohexyl]amino}-4-bromophenyl)-1,3,4-oxadiazol-2(3H)-one hydrochloride] | 510 | 4.9
N[C@H]1CC[C@H](Nc2cc(-c3n[nH]c(=O)o3)cc(F)c2C(F)(F)F)CC1 [Example 36, 5-[3-{[(1r,4r)-4-aminocyclohexyl]amino}-5-fluoro-4-(trifluoromethyl)phenyl]-1,3,4-oxadiazol-2(3H)-one hydrochloride] | 570 | 3.1
N[C@H]1CC[C@H](Nc2cc(-c3n[nH]c(=O)o3)ccc2OC(F)(F)F)CC1 [Example 38, 5-[3-{[(1r,4r)-4-aminocyclohexyl]amino}-4-(trifluoromethoxy)phenyl]-1,3,4-oxadiazol-2(3H)-one hydrochloride] | 550 | 20
CC(N)[C@H]1CC[C@H](Nc2cc(-c3n[nH]c(=O)o3)ccc2C(F)(F)F)CC1 (stereo partly shown) [Example 39, 5-[3-{[(1r,4r)-4-(1-aminoethyl)cyclohexyl]amino}-4-(trifluoromethyl)phenyl]-1,3,4-oxadiazol-2(3H)-one hydrochloride] | 100 | 2.2
N[C@H]1CC[C@H](Nc2cc(-c3n[nH]c(=O)o3)cc(F)c2Cl)CC1 [Example 40, 5-(3-{[(1r,4r)-4-aminocyclohexyl]amino}-4-chloro-5-fluorophenyl)-1,3,4-oxadiazol-2(3H)-one hydrochloride] | 440 | 6.2
O=c1[nH]nc(-c2ccc(C(F)(F)F)c(NC3CC34CCNCC4)c2)o1 (stereo not shown) [Example 42, 5-{3-[(6-azaspiro[2.5]octan-1-yl)amino]-4-(trifluoromethyl)phenyl}-1,3,4-oxadiazol-2(3H)-one hydrochloride] | 270 | 10
NC1CC2(C1)CC(Nc1cc(-c3n[nH]c(=O)o3)ccc1C(F)(F)F)C2 (stereo not shown) [Example 43, 5-{3-[(6-aminospiro[3.3]heptan-2-yl)amino]-4-(trifluoromethyl)phenyl}-1,3,4-oxadiazol-2(3H)-one hydrochloride] | 190 | 9.2
NCC[C@H]1CC[C@H](Nc2cc(-c3n[nH]c(=O)o3)ccc2C(F)(F)F)CC1 [Example 44, 5-[3-{[(1r,4r)-4-(2-aminoethyl)cyclohexyl]amino}-4-(trifluoromethyl)phenyl]-1,3,4-oxadiazol-2(3H)-one hydrochloride] | 330 | 4.2
O=c1[nH]nc(-c2ccc(C(F)(F)F)c(N[C@H]3CCC34CCNCC4)c2)o1 [Example 45, 5-[3-{[(1S)-7-azaspiro[3.5]nonan-1-yl]amino}-4-(trifluoromethyl)phenyl]-1,3,4-oxadiazol-2(3H)-one hydrochloride] | 390 | 20
O=c1[nH]nc(-c2ccc(C(F)(F)F)c(N[C@@H]3CCC34CCNCC4)c2)o1 [Example 46, 5-[3-{[(1R)-7-azaspiro[3.5]nonan-1-yl]amino}-4-(trifluoromethyl)phenyl]-1,3,4-oxadiazol-2(3H)-one hydrochloride] | 2600 | 290
O=c1[nH]nc(-c2ccc(Cl)c(NCC3CCNCC3)c2)o1 [Example 47, 5-(4-chloro-3-{[(piperidin-4-yl)methyl]amino}phenyl)-1,3,4-oxadiazol-2(3H)-one hydrochloride] | 820 | 7.6
O=c1[nH]nc(-c2ccc(C(F)(F)F)c(NCC3CCNCC3)c2)o1 [Example 48, 5-[3-{[(piperidin-4-yl)methyl]amino}-4-(trifluoromethyl)phenyl]-1,3,4-oxadiazol-2(3H)-one hydrochloride] | 1200 | 4.4
O=c1[nH]nc(-c2ccc(Cl)c(NC[C@@H]3CCNC3)c2)o1 [Example 49, 5-[4-chloro-3-({[(3R)-pyrrolidin-3-yl]methyl}amino)phenyl]-1,3,4-oxadiazol-2(3H)-one hydrochloride] | 7600 | 18
O=c1[nH]nc(-c2ccc(Br)c(NCC3CCNCC3)c2)o1 [Example 50, 5-(4-bromo-3-{[(piperidin-4-yl)methyl]amino}phenyl)-1,3,4-oxadiazol-2(3H)-one hydrochloride] | 1800 | 3.7
CN(CC1CCNCC1)c1cc(-c2n[nH]c(=O)o2)ccc1C(F)(F)F [Example 51, 5-[3-{methyl[(piperidin-4-yl)methyl]amino}-4-(trifluoromethyl)phenyl]-1,3,4-oxadiazol-2(3H)-one hydrochloride] | 3100 | 14
O=c1[nH]nc(-c2ccc(C(F)(F)F)c(NC[C@H]3CCCNC3)c2)o1 [Example 53, 5-[3-({[(3S)-piperidin-3-yl]methyl}amino)-4-(trifluoromethyl)phenyl]-1,3,4-oxadiazol-2(3H)-one hydrochloride] | 1600 | 15
O=c1[nH]nc(-c2ccc(C(F)(F)F)c(NC[C@@H]3CCCNC3)c2)o1 [Example 54, 5-[3-({[(3R)-piperidin-3-yl]methyl}amino)-4-(trifluoromethyl)phenyl]-1,3,4-oxadiazol-2(3H)-one hydrochloride] | 1200 | 13
CCC(Nc1cc(-c2n[nH]c(=O)o2)ccc1C(F)(F)F)C1CCNCC1 (stereo not shown) [Example 56, 5-[3-{[1-(piperidin-4-yl)propyl]amino}-4-(trifluoromethyl)phenyl]-1,3,4-oxadiazol-2(3H)-one hydrochloride] | 200 | 7
CC1(CNc2cc(-c3n[nH]c(=O)o3)ccc2C(F)(F)F)CCNCC1 [Example 57, 5-[3-{[(4-methylpiperidin-4-yl)methyl]amino}-4-(trifluoromethyl)phenyl]-1,3,4-oxadiazol-2(3H)-one hydrochloride] | 370 | 6
O=c1[nH]nc(-c2ccc(C(F)(F)F)c(NCCC3CCCNC3)c2)o1 (stereo not shown) [Example 60, 5-[3-{[2-(piperidin-3-yl)ethyl]amino}-4-(trifluoromethyl)phenyl]-1,3,4-oxadiazol-2(3H)-one hydrochloride] | 3100 | 13
O=c1[nH]nc(-c2ccc(C(F)(F)F)c(NCCC3CCNCC3)c2)o1 [Example 64, 5-[3-{[2-(piperidin-4-yl)ethyl]amino}-4-(trifluoromethyl)phenyl]-1,3,4-oxadiazol-2(3H)-one hydrochloride] | 1300 | 9
O=c1[nH]nc(-c2ccc(C(F)(F)F)c(NCCN3CCNCC3)c2)o1 [Example 65, 5-[3-{[2-(piperazin-1-yl)ethyl]amino}-4-(trifluoromethyl)phenyl]-1,3,4-oxadiazol-2(3H)-one dihydrochloride] | 1000 | 14
Cc1ccc(-c2n[nH]c(=O)o2)cc1NC[C@H]1CC[C@H](N)CC1 [Example 67, 5-[3-({[(1r,4r)-4-aminocyclohexyl]methyl}amino)-4-methylphenyl]-1,3,4-oxadiazol-2(3H)-one hydrochloride] | 610 | 26
